What was measured:
Format in all cases: cell-based, human
[1] = tested on: normal hematopoietic progenitor cells (normal bone marrow MNC); assay: CFU-GM colony formation of normal hematopoietic progenitor cells; conditions: Table 3; 40 μg/ml at 0 h, 20 μg/ml 18 h later; 12 days; mean ± SD; control 263 ± 10
Source text: (§1) Normal bone marrow mononuclear cells (MNC) were obtained by aspiration from consenting volunteers and enriched for hematopoietic progenitors as previously reported by numerous investigators (Zamecnick et al., Proc. Natl. Acad. Sci. U.S.A. 83, 4143-4147 (1986); Caracciolo et al., J. Clin. Invest. 85, 55-61 (1990)). In brief, marrow cells were subjected to Ficoll-Hypaque density gradient sedimentation and then depleted of adherent monocyte-macrophage and T-lymphocytes by adherence to plastic Petri dishes and rosetting with neuraminidase-treated sheep red blood cells, respectively. Philadelphia chromosome-positive blast cells were isolated by Ficoll-Hypaque density gradient sedimentation from a CML patient in blast crisis (L-6 type junction). […] The residual non-blast cells had the morphological appearance of small lymphocytes. 25,000 MNC and 25,000 CML blast cells were combined and incubated with bcr-abl breakpoint-Specific antisense oligomer (SEQ ID NO:3) (40 μg/ml at h 0; 20 μg/ml 18 hours later) or with a 4 nucleotide mismatch bcr-abl antisense oligomer (SEQ ID NO:2) (40 μg/ml at 0 h; 20 μg/ml 18 hours later) or left untreated. […] At the end of the incubation period colonies were counted. […]

[2] = tested on: CML blast crisis cells (L-6 type junction); assay: CFU-L colony formation of CML blast crisis cells (Example 3); conditions: Table 3; 40 μg/ml at 0 h, 20 μg/ml 18 h later; 12 days; mean ± SD; control 806 ± 70
Source text: Normal bone marrow mononuclear cells (MNC) were obtained by aspiration from consenting volunteers and enriched for hematopoietic progenitors as previously reported by numerous investigators (Zamecnick et al., Proc. Natl. Acad. Sci. U.S.A. 83, 4143-4147 (1986); Caracciolo et al., J. Clin. Invest. 85, 55-61 (1990)). In brief, marrow cells were subjected to Ficoll-Hypaque density gradient sedimentation and then depleted of adherent monocyte-macrophage and T-lymphocytes by adherence to plastic Petri dishes and rosetting with neuraminidase-treated sheep red blood cells, respectively. Philadelphia chromosome-positive blast cells were isolated by Ficoll-Hypaque density gradient sedimentation from a CML patient in blast crisis (L-6 type junction). […] The residual non-blast cells had the morphological appearance of small lymphocytes. 25,000 MNC and 25,000 CML blast cells were combined and incubated with bcr-abl breakpoint-Specific antisense oligomer (SEQ ID NO:3) (40 μg/ml at h 0; 20 μg/ml 18 hours later) or with a 4 nucleotide mismatch bcr-abl antisense oligomer (SEQ ID NO:2) (40 μg/ml at 0 h; 20 μg/ml 18 hours later) or left untreated. Four hours after the second addition of oligonucleotides to the cultures, cells were seeded into duplicate methylcellulose dishes containing IL-3 (20 U/ml) and GM-CSF (5 ng/ml) and allowed to grow for an additional 12 days. At the end of the incubation period colonies were counted.
The data is shown in Table 3, below, wherein values represent mean ± standard deviation of duplicate control cultures (no oligonucleotide added) and duplicate experimental cultures from two separate experiments. Colony forming unit-granulocyte macrophage (CFU-GM)-derived colonies consisted of 50 or more cell aggregates, while CFU-GM-derived clusters were defined as aggregates of between 4 and 40 cells. These are normal hematopoietic colonies derived from progenitors with the capability to differentiate along the granulocytic and macrophage lineages. […]

[3] = tested on: Philadelphia chromosome-positive blast cells of CML patients in blast crisis, L-6 (b2a2) type junction; assay: Colony formation of CML blast crisis patient cells expressing the b2a2 (L-6) junction; conditions: 10 days in semi-solid culture (FIG. 2)
Description: Leukemia cells were obtained from the marrow of the posterior iliac crest of five CML patients in blast crisis. The cells were diluted 1:2 in Iscove's modified Dulbecco medium (IMDM) to form a cell suspension. Philadelphia chromosome-positive blast cells were isolated by Ficoll-Hypaque density gradient sedimentation to remove non-mononuclear cells. Accordingly, the bone marrow cell suspension was gently overlayed on a Histopaque density gradient (Sigma Chemical Co., St. Louis, Mo.) in a 2:1 ratio, and then spun down for 30 min. at 1500 rpm and 18° C. Cells remaining in the interface layer after centrifugation were collected using a Pasteur pipet, and washed with IMDM at 1000 rpm and […] for 10 min.
Cells plated into methyl cellulose semisolid media after 7-11 days of culture were recovered from the medium. Total RNA was isolated according to the procedure of Chomczynski et al, Anal. Biochem. 162, 156-159 (1987). The RNA ([…]) isolated from one patient having particularly exuberant cell growth was annealed with the 3' RT-PCR primer GCTTCACACC ATTCCCCATTGT (SEQ ID NO:10) complementary to 22 nucleotides of c-abl exon 2 for 30 minutes at 37° C. Following annealing of the 3' primer, the RNA was reverse transcribed with 500 units of Moloney murine leukemia virus reverse transcriptase at 37° C. for 1 hour. The reaction was stopped and the mixture diluted in 1 x Thermus aquaticus (Taq) polymerase buffer. A 5' primer, the 22 nucleotide oligomer CACAGCATTCCGCTGACCATCA (SEQ ID NO: 11) complementary to bcr exon 2 and additional c-abl exon 2 3' primer were added to a final concentration of 2 ng/μl each with 2.5 units of Taq polymerase for amplification of the cDNA fragments. Sixty cycles of PCR were performed in a Perkin Elmer Thermal Cycler by annealing at 55° C., synthesizing at 72° C. and denaturing at 95° C. The amplification product, corresponding to the b2a2 junction, was thereafter separated on a 2% agarose gel. The band containing the bcr-abl fragment was cut out and cleaned according to a standard technique utilizing a GENE-CLEAN™ kit (Bio 101, Inc.), cloned by blunt end ligation in the BLUESCRIPT SK vector (Stratagene Cloning Systems) linearized by SMA I digestion. Several individual clones were then sequenced using the SEQUENASE™ version 2.0 enzyme (United States Biochemical Corp., Cleveland, Ohio), according to the sequence protocol recommended by the manufacturer. Accordingly, the denatured bcr-abl DNA fragments were annealed with specific primers which flank the cloning site in the BLUESCRIPT SK vector, in the presence of SEQUENASE™ reaction buffer for 15 min. at 37° C. The primer-annealed fragments were incubated at room temperature with SEQUENASE™ version 2.0 enzyme and α-S^35 dAT at 37° C. Subsequently, labelled template-primer complexes were transferred to tubes containing A, T, C and G nucleotides (one nucleotide per tube) and incubated 5-30 min. at 37° C. The samples were then loaded on a previously prepared acrylamide gel, and run for approximately 10 hours. The sequencing gel was dryed, and the film exposed O/N. Sequence analysis of several of the individual clones identified the bcr-abl junction as having the cDNA sequence shown in FIG. 1 (SEQ ID NO:1). The arrow in the figure indicates the bcr-abl breakpoint junction, and the box delineates the 18 nucleotides corresponding to the junction, which forms a preferred target sequence for hybridization of antisense oligomer. The junction corresponds precisely to the L-6 type breakpoint reported by Shtivelman et al., Cell 47, 277 (1986), in which the bcr exon 2 is fused to c-abl exon 2.
In a similar manner, L-6 type junctions were identified in the remaining CML blast crisis patients by hybridization of RT-PCR amplification products derived from blast crisis CML RNA using a synthetic 18-mer GAAGGGCTTC TTCCTTAT (SEQ ID NO:3) specific for the 18-nucleotide target sequence of the L-6 bcr-abl junction. […]

[4] = tested on: 1:1 mix of normal MNC and CML blast crisis cells; assay: Morphology (Giemsa staining) of cells from residual colonies
Source text: as §1

[5] = tested on: 1:1 mixtures of normal marrow progenitors and CML blast crisis cells; assay: CFU-GM + CFU-L colony formation of 1:1 mixtures of normal marrow progenitors and CML blast crisis cells; conditions: Table 3; 1:1 mixture; 40 μg/ml at 0 h, 20 μg/ml 18 h later; 12 days; mean ± SD; control 978 ± 24
Source text: as §1

Substance: SEQ ID NO:2: mismatched (4 nucleotide substitutions) bcr-abl antisense oligomer GAACGGCATC TACGTTAT (antisense GAACGGCATCTACGTTAT; further chemistry not given here) [reference compound]
- Colonies or Clusters, CFU-GM [1]: 265 ± 6 colonies or clusters
- Colonies or Clusters, CFU-L (colonies formed from CML blast crisis cells) [2]: 786 ± 23 colonies or clusters
- colonies of blast cells formed [3]: formed numerous colonies of blast cells
- morphology of cells isolated from residual colonies [4]: heterogeneous and consisted of blast cells and a variety of differentiating elements
- Colonies or Clusters, CFU-GM + CFU-L [5]: 900 ± 46 colonies or clusters

From patent US5652222A, “Selective inhibition of leukemic cell proliferation by bcr-abl antisense oligonucleotides” (Temple University-of The Commonwealth System of Higher …, priority 1993, dated 1997)
